HELM strings list units from the 5' end as sugar, base in round brackets, then linkage (d deoxyribose, r ribose, m 2'-O-methyl, p phosphodiester). Strings are as the collection lists them, not checked against the first reports. ss, as = sense and antisense strand
Note: test system not given here.

For the data set the following is noted: siRNA.
As to “RNA1{m(G)p.r(A)p.m(A)p.r(A)p.m(A)p.r(C)p.m(G)p.r(C)p.m(U)p.r(U)p.m(G)p.r(U)p.m(A)p.r(A)p.m(A)p.r(G)p.m(C)p.r(C)p.m(G)p.r(T)p.r(T)}|RNA2{r(C)p.r(G)p.r(G)p.r(C)p.r(U)p.r(U)p.r(U)p.m(A)p.r(C)p.m(A)p.m(A)p.r(G)p.r(C)p.r(G)p.r(U)p.r(U)p.r(U)p.r(U)p.r(C)p.r(T)p.r(T)}$$$RNA1{StrandType:ss}|RNA2{StrandType:as}$”, the target mRNA knockdown was 23%.
For “RNA1{m(G)p.r(A)p.m(A)p.r(A)p.m(C)p.r(U)p.m(G)p.r(G)p.m(U)p.r(A)p.m(C)p.r(U)p.m(U)p.r(U)p.m(C)p.r(C)p.m(C)p.r(C)p.m(C)p.r(T)p.r(T)}|RNA2{r(G)p.r(G)p.r(G)p.r(G)p.r(G)p.r(A)p.r(A)p.r(A)p.r(G)p.r(U)p.r(A)p.r(C)p.r(C)p.r(A)p.r(G)p.r(U)p.r(U)p.r(U)p.r(C)p.r(T)p.r(T)}$$$RNA1{StrandType:ss}|RNA2{StrandType:as}$” the value was 57%; for “RNA1{m(G)p.r(A)p.m(A)p.r(G)p.m(A)p.r(G)p.m(C)p.r(C)p.m(U)p.r(A)p.m(C)p.r(A)p.m(C)p.r(A)p.m(A)p.r(C)p.m(C)p.r(C)p.m(U)p.r(T)p.r(T)}|RNA2{r(A)p.m(G)p.m(G)p.m(G)p.r(U)p.r(U)p.m(G)p.r(U)p.m(G)p.r(U)p.r(A)p.m(G)p.m(G)p.r(C)p.r(U)p.r(C)p.r(U)p.r(U)p.r(C)p.r(T)p.r(T)}$$$RNA1{StrandType:ss}|RNA2{StrandType:as}$”, 43%; for “RNA1{m(G)p.r(A)p.m(A)p.r(G)p.m(A)p.r(G)p.m(C)p.r(C)p.m(U)p.r(A)p.m(C)p.r(A)p.m(C)p.r(A)p.m(A)p.r(C)p.m(C)p.r(C)p.m(U)p.r(T)p.r(T)}|RNA2{r(A)p.r(G)p.r(G)p.r(G)p.r(U)p.r(U)p.r(G)p.r(U)p.m(G)p.r(U)p.m(A)p.r(G)p.m(G)p.r(C)p.m(U)p.r(C)p.m(U)p.r(U)p.m(C)p.r(T)p.r(T)}$$$RNA1{StrandType:ss}|RNA2{StrandType:as}$”, 50%.
For “RNA1{m(G)p.r(A)p.m(A)p.r(G)p.m(A)p.r(G)p.m(U)p.r(U)p.m(A)p.r(A)p.m(C)p.r(C)p.m(C)p.r(G)p.m(G)p.r(G)p.m(A)p.r(C)p.r(U)p.r(T)p.r(T)}|RNA2{r(A)p.r(G)p.r(U)p.r(C)p.r(C)p.r(C)p.r(G)p.r(G)p.r(G)p.r(U)p.r(U)p.r(A)p.r(A)p.r(C)p.r(U)p.r(C)p.r(U)p.r(U)p.r(C)p.r(T)p.r(T)}$$$RNA1{StrandType:ss}|RNA2{StrandType:as}$” the value was 17%.
The same measure for “RNA1{m(G)p.r(A)p.m(A)p.r(G)p.m(G)p.r(G)p.m(G)p.r(A)p.m(A)p.r(A)p.m(U)p.r(C)p.m(U)p.r(G)p.m(U)p.r(G)p.m(G)p.r(U)p.m(U)p.r(T)p.r(T)}|RNA2{r(A)p.r(A)p.r(C)p.r(C)p.r(A)p.r(C)p.r(A)p.r(G)p.r(A)p.r(U)p.r(U)p.r(U)p.r(C)p.r(C)p.r(C)p.r(C)p.r(U)p.r(U)p.r(C)p.r(T)p.r(T)}$$$RNA1{StrandType:ss}|RNA2{StrandType:as}$”: 41%; for “RNA1{m(G)p.r(A)p.m(A)p.r(U)p.m(A)p.r(A)p.m(C)p.r(C)p.m(U)p.r(G)p.m(A)p.r(A)p.m(C)p.r(G)p.m(U)p.r(C)p.m(A)p.r(C)p.m(C)p.r(T)p.r(T)}|RNA2{r(G)p.r(G)p.r(U)p.r(G)p.m(A)p.r(C)p.r(G)p.r(U)p.r(U)p.r(C)p.m(A)p.r(G)p.r(G)p.r(U)p.r(U)p.m(A)p.r(U)p.r(U)p.r(C)p.r(T)p.r(T)}$$$RNA1{StrandType:ss}|RNA2{StrandType:as}$”: 21%; for “RNA1{m(G)p.r(A)p.m(A)p.r(U)p.m(A)p.r(A)p.m(C)p.r(C)p.m(U)p.r(G)p.m(A)p.r(A)p.m(C)p.r(G)p.m(U)p.r(C)p.m(A)p.r(C)p.m(C)p.r(T)p.r(T)}|RNA2{r(G)p.r(G)p.r(U)p.r(G)p.r(A)p.r(C)p.r(G)p.r(U)p.r(U)p.r(C)p.r(A)p.r(G)p.r(G)p.r(U)p.r(U)p.r(A)p.r(U)p.r(U)p.r(C)p.r(T)p.r(T)}$$$RNA1{StrandType:ss}|RNA2{StrandType:as}$”: 17%.
Take “RNA1{m(G)p.r(A)p.m(C)p.r(A)p.m(A)p.r(G)p.m(G)p.r(G)p.m(A)p.r(A)p.m(G)p.r(G)p.m(U)p.r(U)p.m(A)p.r(G)p.m(C)p.r(C)p.m(U)p.r(T)p.r(T)}|RNA2{r(A)p.r(G)p.r(G)p.r(C)p.r(U)p.r(A)p.r(A)p.r(C)p.r(C)p.r(U)p.r(U)p.r(C)p.r(C)p.r(C)p.r(U)p.r(U)p.r(G)p.r(U)p.r(C)p.r(T)p.r(T)}$$$RNA1{StrandType:ss}|RNA2{StrandType:as}$”: the target mRNA knockdown was found to be 34%.
The same measure for “RNA1{m(G)p.r(A)p.m(G)p.r(A)p.m(G)p.r(A)p.m(G)p.r(A)p.m(C)p.r(G)p.m(G)p.r(U)p.m(G)p.r(G)p.m(A)p.r(A)p.m(G)p.r(A)p.m(A)p.r(T)p.r(T)}|RNA2{r(U)p.r(U)p.r(C)p.r(U)p.r(U)p.r(C)p.r(C)p.r(A)p.r(C)p.r(C)p.m(G)p.r(U)p.r(C)p.r(U)p.r(C)p.r(U)p.r(C)p.r(U)p.r(C)p.r(T)p.r(T)}$$$RNA1{StrandType:ss}|RNA2{StrandType:as}$”: 56%; for “RNA1{m(G)p.r(A)p.m(G)p.r(G)p.m(A)p.r(U)p.m(G)p.r(G)p.m(A)p.r(U)p.m(U)p.r(C)p.m(G)p.r(A)p.m(C)p.r(U)p.m(U)p.r(A)p.r(G)p.r(T)p.r(T)}|RNA2{r(C)p.m(U)p.r(A)p.r(A)p.r(G)p.m(U)p.r(C)p.r(G)p.r(A)p.r(A)p.m(U)p.r(C)p.r(C)p.r(A)p.r(U)p.r(C)p.r(C)p.r(U)p.r(C)p.r(T)p.r(T)}$$$RNA1{StrandType:ss}|RNA2{StrandType:as}$”: 23%; for “RNA1{m(G)p.r(A)p.m(U)p.r(A)p.m(C)p.r(U)p.m(U)p.r(C)p.m(U)p.r(G)p.m(G)p.r(U)p.m(U)p.r(C)p.m(C)p.r(C)p.m(U)p.r(C)p.m(C)p.r(T)p.r(T)}|RNA2{r(G)p.r(G)p.r(A)p.r(G)p.r(G)p.r(G)p.r(A)p.r(A)p.r(C)p.r(C)p.r(A)p.r(G)p.r(A)p.r(A)p.r(G)p.r(U)p.r(A)p.r(U)p.r(C)p.r(T)p.r(T)}$$$RNA1{StrandType:ss}|RNA2{StrandType:as}$”: 45%.
For “RNA1{m(G)p.r(A)p.m(U)p.r(U)p.m(C)p.r(C)p.m(A)p.r(A)p.m(A)p.r(C)p.m(C)p.r(C)p.m(C)p.r(A)p.m(C)p.r(U)p.m(A)p.r(U)p.m(C)p.r(T)p.r(T)}|RNA2{r(G)p.r(A)p.r(U)p.r(A)p.r(G)p.r(U)p.r(G)p.r(G)p.r(G)p.r(G)p.r(U)p.r(U)p.r(U)p.r(G)p.r(G)p.r(A)p.r(A)p.r(U)p.r(C)p.r(T)p.r(T)}$$$RNA1{StrandType:ss}|RNA2{StrandType:as}$” the value was 54%; for “RNA1{m(G)p.r(C)p.m(A)p.m(G)p.m(A)p.m(G)p.m(A)p.m(A)p.r(U)p.r(C)p.r(U)p.m(A)p.r(C)p.r(C)p.r(U)p.r(U)p.r(U)p.r(C)p.r(C)p.r(T)p.r(T)}|RNA2{r(G)p.r(G)p.r(A)p.r(A)p.r(A)p.r(G)p.r(G)p.r(U)p.r(A)p.r(G)p.r(A)p.r(U)p.r(U)p.r(C)p.r(U)p.r(C)p.r(U)p.r(G)p.r(C)p.r(T)p.r(T)}$$$RNA1{StrandType:ss}|RNA2{StrandType:as}$”, 65%.
The same measure for “RNA1{m(G)p.r(C)p.m(A)p.r(A)p.m(G)p.r(U)p.m(G)p.r(G)p.m(C)p.r(A)p.m(A)p.r(G)p.m(A)p.r(G)p.m(G)p.r(A)p.m(U)p.r(U)p.r(A)p.r(T)p.r(T)}|RNA2{r(U)p.r(A)p.r(A)p.r(U)p.r(C)p.r(C)p.r(U)p.r(C)p.r(U)p.r(U)p.r(G)p.r(C)p.r(C)p.r(A)p.r(C)p.r(U)p.r(U)p.r(G)p.r(C)p.r(T)p.r(T)}$$$RNA1{StrandType:ss}|RNA2{StrandType:as}$”: 55%; for “RNA1{m(G)p.r(C)p.m(G)p.m(A)p.m(G)p.r(C)p.m(A)p.m(G)p.m(A)p.m(G)p.m(A)p.m(A)p.r(U)p.r(C)p.r(U)p.m(A)p.r(C)p.r(C)p.r(U)p.r(T)p.r(T)}|RNA2{r(A)p.r(G)p.r(G)p.r(U)p.r(A)p.r(G)p.r(A)p.r(U)p.r(U)p.r(C)p.r(U)p.r(C)p.r(U)p.r(G)p.r(C)p.r(U)p.r(C)p.r(G)p.r(C)p.r(T)p.r(T)}$$$RNA1{StrandType:ss}|RNA2{StrandType:as}$”: 65%.
“RNA1{m(G)p.r(C)p.m(U)p.r(G)p.m(A)p.r(G)p.m(G)p.r(A)p.m(A)p.r(A)p.m(G)p.r(G)p.m(G)p.r(A)p.m(C)p.r(A)p.m(U)p.r(C)p.m(U)p.r(T)p.r(T)}|RNA2{r(A)p.r(G)p.r(A)p.r(U)p.r(G)p.r(U)p.r(C)p.r(C)p.r(C)p.r(U)p.r(U)p.r(U)p.r(C)p.r(C)p.r(U)p.r(C)p.r(A)p.r(G)p.r(C)p.r(T)p.r(T)}$$$RNA1{StrandType:ss}|RNA2{StrandType:as}$” had a target mRNA knockdown of 61%.
For “RNA1{m(G)p.r(C)p.m(U)p.r(U)p.m(U)p.r(A)p.m(A)p.r(G)p.m(G)p.r(A)p.m(A)p.r(C)p.m(U)p.r(G)p.m(G)p.r(A)p.m(A)p.r(G)p.m(G)p.r(T)p.r(T)}|RNA2{r(C)p.m(C)p.r(U)p.m(U)p.r(C)p.m(C)p.r(A)p.m(G)p.r(U)p.m(U)p.r(C)p.r(C)p.r(U)p.r(U)p.r(A)p.r(A)p.r(A)p.r(G)p.r(C)p.r(T)p.r(T)}$$$RNA1{StrandType:ss}|RNA2{StrandType:as}$” the value was 25%; for “RNA1{m(G)p.r(C)p.m(U)p.r(U)p.m(U)p.r(A)p.m(A)p.r(G)p.m(G)p.r(A)p.m(A)p.r(C)p.m(U)p.r(G)p.m(G)p.r(A)p.m(A)p.r(G)p.m(G)p.r(T)p.r(T)}|RNA2{r(C)p.r(C)p.r(U)p.r(U)p.r(C)p.r(C)p.r(A)p.m(G)p.r(U)p.r(U)p.r(C)p.r(C)p.r(U)p.r(U)p.r(A)p.r(A)p.r(A)p.m(G)p.r(C)p.r(T)p.r(T)}$$$RNA1{StrandType:ss}|RNA2{StrandType:as}$”, 51%; for “RNA1{m(G)p.r(G)p.m(A)p.r(A)p.m(G)p.r(U)p.m(A)p.r(A)p.m(G)p.r(G)p.m(A)p.r(C)p.m(C)p.r(A)p.m(G)p.r(A)p.m(G)p.r(A)p.m(C)p.r(T)p.r(T)}|RNA2{m(G)p.r(U)p.r(C)p.r(U)p.r(C)p.r(U)p.m(G)p.m(G)p.r(U)p.r(C)p.r(C)p.r(U)p.r(U)p.r(A)p.r(C)p.r(U)p.r(U)p.r(C)p.r(C)p.r(T)p.r(T)}$$$RNA1{StrandType:ss}|RNA2{StrandType:as}$”, 23%.

For the origin of these results see the OligoGym collection.
